Experiments:
[1] = system: gram positive and negative bacteria as well as fungi including Malassezia, Aspergillus, and Candida; assay: Anti-microbial capacity of K-CLA; assay type: cell-based
patient with dystonia = assay: Case reports: skin application in patients with dystonia (Examples 1, 2); assay type: in vivo, human; conditions: Example 1 patient, right arm dystonia; salve applied
Description: Over the years, I observed progression of dystonia of a patient. […] An extended forearm wrist rotation was used to identify and measure progression of dystonia. A normal human can rotate the wrist of the fully extended arm more than 270 degrees. The patient was falling to 200 degrees with increasing pain in the opposing forearm muscles.
Last spring, I applied a salve of K-CLA, potassium-conjugated linoleic acid, to potentially kill the microbial residents in the skin causing the dystonia.
This person presented with right arm dystonia after complaints of hand incoordination worsening with vibration. Muscle tenderness and loss of range of motion of extended-wrist rotation defined the clinical diagnosis confirmed by pattern EMG (Nicolet) within a university neurology clinic. The Potassium safflowerate of Example 11 as a salve. […] The improved capacity including reduction in hand tremor has continued with application of Example 10 and 11 application every 2-7 days.

[2] = system: patient with Parkinsonism; assay: Case reports: skin application in patients with Parkinsonism/dystonia (Examples 3-5); assay type: in vivo, human
Description: This person presented with left hemiparetic neglect, reduced finger fine motor capacity, flat affect, tremor, and reduced extended arm wrist rotation and loss of shoulder extension and abduction. The diagnosis of Parkinsonism on clinical grounds was confirmed at a major hospital chain neurology clinic. […] Their extended wrist rotation range measured 60 degrees initially; by six months this approached 200 degrees. At 3 months they could extend their shoulder quickly to 180 degrees (initially slowly to 60 degrees.) This functionality continues to be maintained over 15 months of intermittent applications of salve and ingestion of isomerized safflowerate.
This person presented while on Sinemet prescribed by a major hospital chain neurology clinic for Parkinsonism. […] They also had reduced head rotation with painful limitation.
This individual stopped his Sinemet, continued every other day application of the Example 12 and oral intake of isomerized safflowerate. Improvement has maintained for 4 months, with rare intermittent right-hand tremors after a day of heavy farming.
This person sustained the onset of right arm dystonic Parkinsonism several months after a traumatic brain injury. […] Personal life issues prevented further applications.
The patient was instructed to rotate, extend and open their hand while they were actively having right hand-arm Parkinsonism tremors. They were unable to either rotate their wrist or open their hand voluntarily initially as shown on the left picture so they attempt to force it open with their left hand. The patient was treated with application of the salve over their right arm, subocciput, and upper torso bilaterally.

patient with Alzheimer's = assay: Case reports: skin application in Alzheimer's syndrome (Examples 7, 8); assay type: in vivo, human; conditions: patient with early Alzheimer's disease and cortical atrophy
[3] = system: malassezia species, candida, aspergillus and many gram positive and negative bacteria; conditions: Changaris and Sullivan 2019; cited from earlier work
[4] = system: bacteria and fungi (cross-kingdom); conditions: hospital disinfection; Changaris and Carenbauer 2022; cited from earlier work
[5] = system: patients having dystonia with traumatic brain injury; assay: Video capture of wrist rotation before and after application, five patients with Dystonia/Parkinsonism (Example 9); assay type: in vivo, human; conditions: for increase in external wrist rotation / increase in internal wrist rotation: FIG. 1
Description: Five patients aged 42-67 using recorded videos of hand movement Dystonia/Parkinsonism before and after application of Example 12 for 5-10 days. Four had bilateral symptoms. Using video capture to measure the rotation of their wrists before and after application of the […]. […] This improvement has been sustained with intermittent continuing application of the salve to the skin of the forearm and shoulder for 3 months.
Subsequently, I have recorded videos of hand movement in patients with Dystonia/Parkinsonism before and after similar treatment. Several had bilateral symptoms. Video capture was used to measure the rotation of their wrists before and after application of the K-CLA 0.1-12%. […] This improvement has been sustained with intermittent continuing application of the salve to the skin of the forearm and shoulder. […] Application of a broad spectrum antimicrobial with profound antifungal capacity can reverse symptoms of Dystonia/Parkinsonism.

Molecule: potassium-conjugated linoleic acid [K-CLA]
- anti-microbial capacity [1]: extraordinary anti-microbial capacity
- dystonic symptoms (patient with dystonia): Most of the dystonic symptoms were resolved
- skin reactions ([2]; hemiparetic Parkinsonism patient and early Alzheimer's patient, skin application): intense skin reactions
- acute hemiparetic Parkinsonism ([2]; patient who refused conventional medications, salve): improving acute hemiparetic Parkinsonism with both strength and agility
- mental acuity and emotionality (patient with Alzheimer's): clinical improvement in mental acuity and emotionality
- biocidal capacity [3]: biocidal capacity against at least four malassezia species
- cross-kingdom anti-bacterial and anti-fungal efficacy [4]: sufficient to satisfy the United States Environmental Protection Agency requirements for hospital disinfection
- extended wrist rotation ([5]; applied as salve, within weeks): measurable improvement
- increase in external wrist rotation ([5]; first patient): ~20%
- increase in internal wrist rotation ([5]; first patient): ~30%
- capacity to draw, patient's own impression ([5]; one patient, an architect): capacity to draw has improved
- increase in external wrist rotation ([5]; second patient): ~10%
- increase in internal wrist rotation ([5]; second patient): ~20%

Molecule: C#CCN(C)[C@H](C)Cc1ccccc1 [selegiline, reference compound]
- right arm dystonic Parkinsonism ([2]; Example 5, person, as tolerated): without significant improvement
